# Laboratory results as given in ChEMBL document CHEMBL6178002, “Identification of a RANKL/TNF-α Dual-Inhibitor as a Potential Disease-Modifying Agent for the Treatment of Knee Osteoarthritis” (J Med Chem, 2025).
# Columns and labels:
# [1] = Cytotoxicity against bone marrow macrophage cells (unknown origin) assessed as cell viability at 10 uM incubated for 24 hrs by CCK8 assay relative to control; type: toxicity, cell-based; conditions: read-out: Activity
# [2] = Inhibition of RANKL/M-CSF-induced osteoclastogenesis in male C57/BL6 mouse bone marrow cells at 0.1 uM incubated for 5 to 7 days by TRAP staining based analysis relative to control; type: functional; conditions: C57/BL6, Bone marrow cell, time 5-7 day
# [3] = Inhibition of RANKL/M-CSF-induced osteoclastogenesis in male C57/BL6 mouse bone marrow cells at 1 uM incubated for 5 to 7 days by TRAP staining based analysis relative to control; type: functional; conditions: C57/BL6, Bone marrow cell, time 5-7 day
# [4] = Anti-osteoclastogenic activity in bone marrow cells (unknown origin) assessed as inhibition of RANKL/M-CSF-induced osteoclast differentiation measured after 5 days by TRAP staining based analysis; type: functional; conditions: Bone marrow cell, 120 h
Compound,"viability at 24 h, 10 µM [1]",inhibition at 0.1 µM [2],inhibition at 1 µM [3],IC50 [4]
CC(C)c1ccccc1NC(=O)[C@@H]1Cc2c3ccccc3[nH]c2[C@]2(C[C@@H](c3ccccc3)C2)N1,116%,26.5%,62.5%,–
COc1cccc(OC)c1NC(=O)[C@@H]1Cc2c3ccccc3[nH]c2[C@]2(C[C@H](c3ccccc3)C2)N1,95.7%,11.5%,35.9%,–
CC(C)c1cccc(C(C)C)c1NC(=O)[C@@H]1Cc2c3ccccc3[nH]c2[C@]2(C[C@H](c3ccccc3)C2)N1,141%,20.7%,62%,–
Cc1cccc(C)c1NC(=O)[C@H]1Cc2c3ccccc3[nH]c2[C@]2(C[C@@H](c3ccccc3)C2)N1,116%,–,23.8%,–
Cc1cccc(C)c1NC(=O)[C@H]1Cc2c([nH]c3ccccc23)C2(CN(c3ccccc3)C2)N1,119%,42.9%,78.3%,–
Cc1cccc(C)c1NC(=O)[C@@H]1Cc2c([nH]c3ccccc23)C2(CN(c3ccc(F)cc3)C2)N1,119%,23.1%,57.4%,–
COc1ccc(N2CC3(C2)N[C@H](C(=O)Nc2c(C)cccc2C)Cc2c3[nH]c3ccccc23)cc1,102%,34.6%,48.6%,–
Cc1cccnc1NC(=O)[C@@H]1Cc2c3ccccc3[nH]c2[C@]2(C[C@@H](c3ccccc3)C2)N1,160%,35.9%,58.3%,–
Cc1cccc(C)c1NC(=O)[C@H]1Cc2c3ccccc3[nH]c2[C@]2(C[C@H](c3ccccc3)C2)N1,105%,12.3%,45.7%,–
O=C(Nc1ccccc1F)[C@@H]1Cc2c3ccccc3[nH]c2[C@]2(C[C@@H](c3ccccc3)C2)N1,101%,34.4%,70.1%,–
CCc1ccc(N2CC3(C2)N[C@H](C(=O)Nc2c(C)cccc2C)Cc2c3[nH]c3ccccc23)cc1,101%,25.1%,35.9%,–
Cc1cccc(C)c1NC(=O)[C@@H]1Cc2c([nH]c3ccccc23)[C@@](C)(CCc2ccccc2)N1,106%,23.4%,52.1%,–
Cc1cccc(C)c1NC(=O)[C@@H]1Cc2c3ccccc3[nH]c2[C@]2(C[C@@H](c3ccccc3)C2)N1,105%,36.2%,55.1%,–
O=C(Nc1ccccc1F)[C@@H]1Cc2c3ccccc3[nH]c2[C@]2(C[C@H](c3ccccc3)C2)N1,63.6%,17.6%,40.7%,–
CN(C)c1ccccc1NC(=O)[C@@H]1Cc2c3ccccc3[nH]c2[C@]2(C[C@@H](c3ccccc3)C2)N1,109%,32.2%,89.9%,–
Cc1cccc(C)c1NC(=O)[C@@H]1Cc2c([nH]c3ccccc23)C2(CN(c3cccnc3)C2)N1,107%,11.5%,52.5%,–

Compound,"viability at 24 h, 10 µM [1]",inhibition at 0.1 µM [2],inhibition at 1 µM [3],IC50 [4]
Cc1cccc(C)c1NC(=O)[C@@H]1Cc2c([nH]c3ccccc23)C2(CCN(c3ccccc3)CC2)N1,120%,–,30.2%,–
Cc1cccc(C)c1NC(=O)[C@@H]1Cc2c([nH]c3ccccc23)[C@](C)(CCc2ccccc2)N1,117%,37.3%,48.3%,–
Cc1cccc(C)c1NC(=O)[C@@H]1Cc2c3ccccc3[nH]c2[C@]2(C[C@H](c3ccccc3)C2)N1,95.1%,29.2%,32.3%,–
Cc1ccccc1NC(=O)[C@@H]1Cc2c3ccccc3[nH]c2[C@]2(C[C@H](c3ccccc3)C2)N1,112%,16.5%,66.5%,–
Cc1cccc(C)c1NC(=O)[C@@H]1Cc2c([nH]c3ccccc23)C2(CN(c3ccc(C#N)cc3)C2)N1,105%,37.3%,48.3%,–
CC(C)c1ccccc1NC(=O)[C@@H]1Cc2c3ccccc3[nH]c2[C@]2(C[C@H](c3ccccc3)C2)N1,103%,12.7%,37.5%,–
Cc1ccccc1NC(=O)[C@@H]1Cc2c3ccccc3[nH]c2[C@]2(C[C@@H](c3ccccc3)C2)N1,102%,23%,54.4%,–
Cc1cccc(C)c1NC(=O)[C@@H]1Cc2c([nH]c3ccccc23)C2(CN(c3ccc(S(C)(=O)=O)cc3)C2)N1,106%,23.4%,52.1%,–
CN(C)c1ccccc1NC(=O)[C@@H]1Cc2c3ccccc3[nH]c2[C@]2(C[C@H](c3ccccc3)C2)N1,66.3%,10.2%,58.4%,–
O=C(Nc1ccccn1)[C@@H]1Cc2c3ccccc3[nH]c2[C@]2(C[C@@H](c3ccccc3)C2)N1,127%,16.1%,41.2%,–
Cc1cccnc1NC(=O)[C@@H]1Cc2c3ccccc3[nH]c2[C@]2(C[C@H](c3ccccc3)C2)N1,159%,16.7%,49.8%,–
COc1cccc(OC)c1NC(=O)[C@@H]1Cc2c3ccccc3[nH]c2[C@]2(C[C@@H](c3ccccc3)C2)N1,70.2%,16.5%,32.3%,–
Cc1cccc(C)c1NC(=O)[C@@H]1Cc2c([nH]c3ccccc23)C2(CN(c3ccc(C(F)(F)F)cc3)C2)N1,117%,15.4%,43.7%,–
CC(C)c1cccc(C(C)C)c1NC(=O)[C@@H]1Cc2c3ccccc3[nH]c2[C@]2(C[C@@H](c3ccccc3)C2)N1,115%,23.6%,66.9%,–
Cc1cc2occ(CN(C)CCN(C)Cc3cn(-c4cccc(C(F)(F)F)c4)c4ccccc34)c(=O)c2cc1C,3.8%,18.4%,56.1%,1000 nM
O=C(Nc1ccccn1)[C@@H]1Cc2c3ccccc3[nH]c2[C@]2(C[C@H](c3ccccc3)C2)N1,149%,13.1%,44.2%,–
